{"source": "patent US5482931A", "about": "“Stabilized pharmaceutical peptide compositions” (Ferring AB, priority 1993, dated 1996)", "key": {"[1]": {"assay": "Adsorption of 125I-marked desmopressin to tubes of polystyrene, polypropene and glass", "type": "physicochemical", "settings": "24 h, ambient temperature", "procedure": "Sterile aqueou solutions of desmopressin marked with ^125 I (appr. 10,000 CPM/ml) containing benzalkonium chloride+saline, chlorobutanol+saline, or saline only, were all incubated in tubes of polystyrene, polypropene and glass for 24 h at ambient temperature."}, "[2]": {"settings": "aqueous solution of desmopressin; cited from earlier work"}}, "data": [{"smiles": "NC(=O)CC[C@@H]1NC(=O)[C@H](Cc2ccccc2)NC(=O)[C@H](Cc2ccc(O)cc2)NC(=O)CCSSC[C@@H](C(=O)N2CCC[C@H]2C(=O)N[C@H](CCCN=C(N)N)C(=O)NCC(N)=O)NC(=O)[C@H](CC(N)=O)NC1=O", "note": "[desmopressin, 1-deamino-8-D-arginine vasopressin]", "values": [{"measurement": "amount of desmopressin recovered from the plastic tubes", "setting": "[1]; preservative-free solution (saline only), plastic tubes", "result": "about half"}, {"measurement": "adsorption of desmopressin to tubes", "setting": "[1]; solution containing benzalkonium chloride + saline", "result": "insignificant adsorption"}, {"measurement": "adsorption of desmopressin to tubes", "setting": "[1]; solution containing chlorobutanol + saline", "result": "insignificant adsorption"}, {"measurement": "storage temperature required for the aqueous solution", "setting": "[2]", "result": "≤ 8", "unit": "°C"}]}]}
